One test deals with SET-2 cells. The settings on record: human megakaryoblastic cell line; cited from earlier work.
The target of a further test is JAK3 (Homo sapiens, UniProt P52333). The settings on record: read-out: IC50 for JAK3 kinase inhibition; cited from earlier work.
In another test the test system is HEL cells. Put plainly: Cytotoxicity, PrestoBlue assay, HEL cells. Type of test: cell-based. The settings on record: Homo sapiens, 72 h, read-out: IC50 toward HEL cells.
Test [1] deals with TF1 cells. The test is described as follows: Cytotoxicity, PrestoBlue assay, TF1 cells. The class given is cell-based. The settings on record: Homo sapiens, TF-1, 72 h, read-out: IC50 toward TF1 cells.
For a further test, the system named is JAK1. The settings on record: read-out: IC50 for JAK1; cited from earlier work.
In test [2] the test system is TF1 cells. The test is described as follows: Annexin V and dead cell flow cytometric apoptosis analysis. The settings on record: TF1, IC25, IC50, IC75, 24 h. The class given is cell-based, human.

Chain of JAK3 (P52333 781-1124 limits assumed): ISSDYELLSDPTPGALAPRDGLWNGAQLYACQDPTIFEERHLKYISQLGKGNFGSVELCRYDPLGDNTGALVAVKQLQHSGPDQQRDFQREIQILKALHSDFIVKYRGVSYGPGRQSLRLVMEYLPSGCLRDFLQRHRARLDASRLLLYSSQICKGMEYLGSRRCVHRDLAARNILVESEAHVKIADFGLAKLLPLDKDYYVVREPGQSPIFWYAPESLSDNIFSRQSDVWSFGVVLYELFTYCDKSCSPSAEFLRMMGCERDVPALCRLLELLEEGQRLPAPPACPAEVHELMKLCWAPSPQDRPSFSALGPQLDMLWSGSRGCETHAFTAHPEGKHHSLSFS

With `Fc1cc(-c2cccc3ncc(-c4cnn(C5CCNCC5)c4)nc23)cc(F)c1CN1CCOCC1` [NVP-BSK805], the “Apoptosis induction in SET-2 cells” value in the test on SET-2 cells was “induced apoptosis in SET-2 cells”.

As usually defined, the IC50 is the concentration needed to halve the response being measured. As for `COc1cc2ncnc(Nc3ccc(O)cc3)c2cc1OC` [WHI-P131], the IC50 at JAK3 is 9 µM.

Turning to `N#CC[C@H](C1CCCC1)n1cc(-c2ncnc3[nH]ccc23)cn1` [ruxolitinib], the results for the half-maximal inhibitory concentration (IC50) in the test with HEL cells, in the test with TF1 cells [1] and with JAK1 were 19.3 ± 0.64 µM, 10.7 ± 0.88 µM and […], respectively. Also, in the test with TF1 cells [2], the “Percentage of cell apoptosis vs dose, annexin V” value was “increased in a dose-dependent manner”.

With `C[C@@H]1CCN(C(=O)CC#N)C[C@@H]1N(C)c1ncnc2[nH]ccc12` [tofacitinib], the “Percentage of cell apoptosis vs dose, annexin V” value in the test on TF1 cells [2] is reported as “increased in a dose-dependent manner”.

(Values after PMC9494680 (ACS Omega, 2022).)
